From patent US20260055102A1 (Redx Pharma Limited, priority 2022, published 2026)

What was measured:
[1] = biological target: Recombinant human DDR1 (aa440-876 containing a GST tag) (Homo sapiens (Human), UniProt Q08345); test: LanthaScreen Eu Kinase Binding Assay DDR1; conditions: Kinase Tracer 178 5 nM, at least two independent replicates; for IC50: read-out: DDR1 pIC50 (converted)
Procedure, shortened: (§1)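 DDR1 (2.5 nM) or DDR2 (1.75 nM) was preincubated with compound 30 min at RT in 50 mM HEPES pH 7.3, 10 mM MgCl2, 1 mM EGTA, 0.01% Tween. Eu-anti-GST and Tracer 178 were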

[2] = biological target: Recombinant human DDR2 (aa427-855 containing a GST tag) (Homo sapiens (Human), UniProt Q16832); test: LanthaScreen Eu Kinase Binding Assay DDR2; conditions: Kinase Tracer 178 10 nM, at least two independent replicates; for IC50: read-out: DDR2 pIC50 (converted)
Chain of Recombinant human DDR2 (aa427-855 containing a GST tag) (Q16832 427-855): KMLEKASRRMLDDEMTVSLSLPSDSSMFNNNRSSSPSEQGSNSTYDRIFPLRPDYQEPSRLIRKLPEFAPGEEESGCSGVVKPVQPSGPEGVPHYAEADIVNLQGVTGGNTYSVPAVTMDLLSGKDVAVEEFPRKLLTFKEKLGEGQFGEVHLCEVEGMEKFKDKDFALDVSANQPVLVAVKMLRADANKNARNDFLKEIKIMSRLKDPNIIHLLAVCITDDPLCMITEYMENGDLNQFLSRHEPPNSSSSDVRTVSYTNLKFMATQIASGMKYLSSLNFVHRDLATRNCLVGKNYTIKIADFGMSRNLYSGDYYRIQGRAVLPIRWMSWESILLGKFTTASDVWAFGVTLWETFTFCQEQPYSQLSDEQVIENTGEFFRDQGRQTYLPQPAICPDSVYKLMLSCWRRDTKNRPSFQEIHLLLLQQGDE
Procedure, shortened: as §1

Chain of Recombinant human DDR1 (aa440-876 containing a GST tag) (Q08345 other isoform, or with tags, fused parts or gaps): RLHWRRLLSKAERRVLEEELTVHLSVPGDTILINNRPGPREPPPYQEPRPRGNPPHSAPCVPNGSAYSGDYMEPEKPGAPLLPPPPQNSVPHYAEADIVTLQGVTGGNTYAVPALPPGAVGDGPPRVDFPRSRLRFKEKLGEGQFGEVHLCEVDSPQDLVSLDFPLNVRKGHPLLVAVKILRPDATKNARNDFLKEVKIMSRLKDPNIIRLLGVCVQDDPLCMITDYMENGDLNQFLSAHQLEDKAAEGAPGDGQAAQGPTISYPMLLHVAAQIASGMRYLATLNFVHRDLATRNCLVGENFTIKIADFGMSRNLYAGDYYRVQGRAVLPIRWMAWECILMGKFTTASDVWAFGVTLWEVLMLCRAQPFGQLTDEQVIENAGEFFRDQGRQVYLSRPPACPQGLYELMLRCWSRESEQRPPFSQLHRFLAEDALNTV

SMILES | IC50 [1] [nM] | DDR2 pIC50 [2] | DDR1 pIC50 [1] | IC50 [2] [nM]
Cc1nc(-c2cncc3[nH]nc(C)c23)ccc1-n1c(=O)n(CC(=O)NCC(F)(F)F)c2cccc(C)c21 [Example 103, 2-[4-methyl-3-[2-methyl-6-(3-methyl-1H-pyrazolo[3,4-c]pyridin-4-yl)-3-pyridyl]-2-oxo-benzimidazol-1-yl]-N-(2,2,2-trifluoroethyl)acetamide] | 10 to 100 | D (pIC50≤6) | – | –
Cc1cccc2c1n(-c1ncc(-c3cncc4[nH]ncc34)cn1)c(=O)n2CC(=O)N[C@H](C)C(F)(F)F [Example 98, 2-[4-methyl-2-oxo-3-[5-(1H-pyrazolo[3,4-c]pyridin-4-yl)pyrimidin-2-yl]benzimidazol-1-yl]-N-[(1R)-2,2,2-trifluoro-1-methyl-ethyl]acetamide] | 100 to 1000 | D (pIC50≤6) | – | –
Cn1ncc2c(-c3ccc(-n4c(=O)n(CC(=O)NCC(F)(F)F)c5ccncc54)cc3)cncc21 [Example 77, 2-[3-[4-(1-methylpyrazolo[3,4-c]pyridin-4-yl)phenyl]-2-oxo-imidazo[4,5-c]pyridin-1-yl]-N-(2,2,2-trifluoroethyl)acetamide] | – | D (pIC50≤6) | D (pIC50≤6) | –
Cc1cccc2c1n(-c1ccc(-c3cncc4c3cnn4C)cn1)c(=O)n2CC(=O)N1CCO[C@@H](C(F)(F)F)C1 [Example 60, 4-methyl-3-[5-(1-methylpyrazolo[3,4-c]pyridin-4-yl)-2-pyridyl]-1-[2-oxo-2-[(2R)-2-(trifluoromethyl)morpholin-4-yl]ethyl]benzimidazol-2-one] | 10 to 100 | – | – | 100 to 1000
COc1cccc2c1n(-c1ccc(-c3cncc4c3cnn4C)cc1)c(=O)n2CC(=O)NCC(F)(F)F [Example 12, 2-[4-methoxy-3-[4-(1-methylpyrazolo[3,4-c]pyridin-4-yl)phenyl]-2-oxobenzimidazol-1-yl]-N-(2,2,2-trifluoroethyl)acetamide] | 10 to 100 | D (pIC50≤6) | – | –
Cn1ncc2c(-c3ccc(-n4c(=O)n(CC(=O)N5CCC[C@H]5C(F)(F)F)c5ccccc54)cc3)cncc21 [Example 2, 1-[4-(1-methylpyrazolo[3,4-c]pyridin-4-yl)phenyl]-3-[2-oxo-2-[(2S)-2-(trifluoromethyl)pyrrolidin-1-yl]ethyl]benzimidazol-2-one] | – | – | A (pIC50>8) | 100 to 1000
Cc1cccc2c1n(-c1ccc(-c3cncc4c3cnn4C)nc1)c(=O)n2CC(=O)N1CCOC(C(F)(F)F)C1 (stereo in doubt) [Example 55, 4-methyl-3-[6-(1-methylpyrazolo[3,4-c]pyridin-4-yl)-3-pyridyl]-1-[2-oxo-2-[(2S)-2-trifluoromethyl)morpholin-4-yl]ethyl]benzimidazol-2-one] | < 10 | – | – | 100 to 1000
Cc1cc(-c2cncc3[nH]ncc23)ncc1-n1c(=O)n(CC(=O)NCC(F)(F)F)c2cccc(C)c21 [Example 93, 2-[4-methyl-3-[4-methyl-6-(1H-pyrazolo[3,4-c]pyridin-4-yl)-3-pyridyl]-2-oxo-benzimidazol-1-yl]-N-(2,2,2-trifluoroethyl)acetamide] | – | – | A (pIC50>8) | 100 to 1000
